Data taken from patent publication US9006450B2 (Boehringer Ingelheim International GmbH, priority 2010, dated 2015).

What follows are molecules tested against T1, human ACC2 (Homo sapiens, UniProt O00763) (assay: ACC2 assay, spectrophotometric 384 well assay (NADH-linked, coupled lactate dehydrogenase/pyruvate kinase)). Settings: ACC2 assay, hACC2 construct lacking 128 N-terminal amino acids, 25° C., 340 nm; read-out: IC50.
T1 construct: made in house; host or cells: insect cells (baculoviral expression system)
Assay type: biochemical
Summary of the method: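 Human ACC2 lacking N-terminal 128 aa, baculovirus/insect-cell expressed, anion-exchange purified; 100 mM Tris pH 7.5, 10 mM citrate, 25 mM KHCO3, 1% DMSO. Started with 200 μM NADH and acetyl-CoA plus 500 μM ATP; PK/LDH-coupled A340 decrease read 15 min at 25° C. IC50 by nonlinear fit of low-control-subtracted slopes.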

T1 sequence (O00763 129-2458 limits assumed): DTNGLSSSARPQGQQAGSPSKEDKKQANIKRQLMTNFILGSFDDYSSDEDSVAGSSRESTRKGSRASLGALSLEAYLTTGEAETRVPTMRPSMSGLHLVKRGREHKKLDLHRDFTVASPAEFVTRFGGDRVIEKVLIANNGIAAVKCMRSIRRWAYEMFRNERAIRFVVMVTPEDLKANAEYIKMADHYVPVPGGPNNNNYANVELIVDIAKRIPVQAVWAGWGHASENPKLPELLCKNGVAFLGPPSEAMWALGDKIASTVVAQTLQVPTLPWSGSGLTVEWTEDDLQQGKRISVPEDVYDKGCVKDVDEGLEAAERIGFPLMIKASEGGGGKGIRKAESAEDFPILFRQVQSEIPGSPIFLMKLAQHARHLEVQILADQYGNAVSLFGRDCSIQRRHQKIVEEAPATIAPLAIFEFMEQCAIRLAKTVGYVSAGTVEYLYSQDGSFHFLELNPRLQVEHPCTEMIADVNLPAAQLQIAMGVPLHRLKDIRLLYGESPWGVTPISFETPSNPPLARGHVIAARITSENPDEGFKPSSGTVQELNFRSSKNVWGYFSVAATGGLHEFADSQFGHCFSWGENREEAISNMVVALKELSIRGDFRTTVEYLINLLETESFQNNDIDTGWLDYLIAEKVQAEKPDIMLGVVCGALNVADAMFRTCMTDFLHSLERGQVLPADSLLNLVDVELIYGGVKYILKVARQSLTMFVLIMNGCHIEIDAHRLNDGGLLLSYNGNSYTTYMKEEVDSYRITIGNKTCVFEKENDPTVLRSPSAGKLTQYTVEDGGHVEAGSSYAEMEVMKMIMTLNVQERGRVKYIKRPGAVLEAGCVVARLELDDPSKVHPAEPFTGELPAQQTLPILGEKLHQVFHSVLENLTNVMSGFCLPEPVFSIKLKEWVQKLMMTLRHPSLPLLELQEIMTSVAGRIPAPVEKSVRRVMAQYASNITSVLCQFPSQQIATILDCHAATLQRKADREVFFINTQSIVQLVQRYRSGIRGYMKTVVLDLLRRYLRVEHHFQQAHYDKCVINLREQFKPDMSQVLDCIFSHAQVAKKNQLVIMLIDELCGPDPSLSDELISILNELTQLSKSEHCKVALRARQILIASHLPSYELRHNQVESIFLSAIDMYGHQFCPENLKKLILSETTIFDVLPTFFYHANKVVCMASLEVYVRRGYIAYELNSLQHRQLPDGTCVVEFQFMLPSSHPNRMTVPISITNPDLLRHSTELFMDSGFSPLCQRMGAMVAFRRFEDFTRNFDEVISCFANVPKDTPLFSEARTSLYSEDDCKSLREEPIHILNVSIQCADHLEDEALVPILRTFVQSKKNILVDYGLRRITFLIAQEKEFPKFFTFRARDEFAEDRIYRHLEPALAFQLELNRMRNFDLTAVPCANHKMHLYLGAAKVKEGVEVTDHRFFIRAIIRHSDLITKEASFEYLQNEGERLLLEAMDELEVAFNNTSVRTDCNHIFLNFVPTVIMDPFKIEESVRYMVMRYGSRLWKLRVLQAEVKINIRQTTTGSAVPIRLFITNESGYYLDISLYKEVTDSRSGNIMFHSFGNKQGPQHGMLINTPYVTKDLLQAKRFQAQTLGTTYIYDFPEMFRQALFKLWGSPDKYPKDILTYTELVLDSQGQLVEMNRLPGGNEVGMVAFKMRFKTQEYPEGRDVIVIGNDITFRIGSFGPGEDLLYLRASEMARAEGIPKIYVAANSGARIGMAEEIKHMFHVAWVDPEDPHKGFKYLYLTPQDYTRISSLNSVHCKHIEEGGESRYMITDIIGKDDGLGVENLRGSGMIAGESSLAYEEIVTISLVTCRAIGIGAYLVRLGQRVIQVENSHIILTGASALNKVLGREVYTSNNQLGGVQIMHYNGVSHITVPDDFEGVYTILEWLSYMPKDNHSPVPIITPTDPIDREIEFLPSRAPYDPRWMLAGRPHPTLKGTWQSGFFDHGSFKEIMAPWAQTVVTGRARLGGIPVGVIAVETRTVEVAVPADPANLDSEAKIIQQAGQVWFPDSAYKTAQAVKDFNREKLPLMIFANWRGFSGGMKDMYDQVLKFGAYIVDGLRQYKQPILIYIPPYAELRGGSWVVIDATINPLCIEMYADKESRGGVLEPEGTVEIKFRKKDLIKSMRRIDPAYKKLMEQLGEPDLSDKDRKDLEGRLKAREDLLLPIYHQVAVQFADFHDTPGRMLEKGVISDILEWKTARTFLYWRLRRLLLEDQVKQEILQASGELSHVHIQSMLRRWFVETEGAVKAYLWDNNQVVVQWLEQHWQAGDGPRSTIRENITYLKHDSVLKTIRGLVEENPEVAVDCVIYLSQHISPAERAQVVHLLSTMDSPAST

IC50 [nM] | SMILES
150 | CC(=O)N[C@@H](C)c1ccc(C2CCN(c3nccc(C(F)(F)F)c3F)CC2)cc1 [Example 5.11]
1600 | CCOc1ccc(N2CCC(c3ccc([C@H](C)NC(=O)CN(C)C)cc3)CC2)cc1 [Example 36.1, (S)-2-(Dimethylamino)-N-(1-{4-[1-(4-ethoxyphenyl)piperidin-4-yl]phenyl}ethyl)acetamide]
520 | CCC(=O)N[C@@H](C)c1ccc(C2CCN(c3ccnc(Oc4ccccc4)c3)CC2)cc1 [Example 1.153]
7000 | COc1ccc(N2CCC(c3ccc([C@H](C)NC(C)=O)cc3)CC2)cc1C#N [Example 8.45]
130 | COc1ccc(-c2cnc(N3CCC(c4ccc([C@H](C)NC(C)=O)cc4)CC3)nc2)cc1C [Example 10.30]
890 | CCC(CC)Oc1nccc(N2CCC(c3ccc([C@H](C)NC(C)=O)cc3)CC2)n1 [Example 11.21]
5000 | CC(=O)N[C@@H](C)c1ccc(C2CCN(c3cc(NC(C)C)ncn3)CC2)cc1 [Example 11.44]
350 | COc1cc(C)c(-c2cnc(N3CCC(c4ccc([C@H](C)NC(C)=O)cc4)CC3)nc2)c(C)c1 [Example 10.204]
14200 | CCOc1ccc(N2CCC(c3ccc([C@H](C)NC(=O)Nc4nccs4)cc3)CC2)cc1 [Example 14.57]
150 | CCOc1ccc(N2CCC(c3ccc([C@H](C)NC(=O)C4CC4)cc3)CC2)cc1 [Example 1.25]
80 | CC(=O)N[C@@H](C)c1ccc(C2CCN(c3ncc(-c4ccc(C#N)s4)cc3F)CC2)cc1 [Example 10.309]
60 | CC(=O)N[C@@H](C)c1ccc(C2CCN(c3ncc4nc(-c5ccc(C)s5)oc4n3)CC2)cc1 [Example 5.6]
8100 | CCOc1ccc(N2CCC(c3ccc([C@H](C)NC(=O)C4CC4)cc3)CC2)c(OCC)c1 [Example 1.121]
3700 | COc1ccc(Nc2nccc(N3CCC(c4ccc([C@H](C)NC(C)=O)cc4)CC3)n2)cc1 [Example 11.54]
90 | C[C@H](NC(=O)N(C)C)c1ccc(C2CCN(c3ncc(-c4ccc(C#N)cc4)cn3)CC2)cc1 [Example 10.109]
1200 | CC(=O)N[C@@H](C)c1ccc(C2CCN(c3ccnc(OCc4ccncc4)c3)CC2)cc1 [Example 19.38]
2100 | CC(=O)N[C@@H](C)c1ccc(C2CCN(c3ncc(C(=O)N4CCCC4)cn3)CC2)cc1 [Example 18.54]
7800 | CCNc1cc(N2CCC(c3ccc([C@H](C)NC(C)=O)cc3)CC2)ncn1 [Example 11.51]
4500 | CC(=O)N[C@@H](C)c1ccc(C2CCN(c3cc(NCCC(C)C)ncn3)CC2)cc1 [Example 11.70]
460 | CCOc1ccc(N2CCC(c3ccc([C@H](C)NC(=O)CC#N)cc3)CC2)cc1 [Example 6.1, (S)-2-Cyano-N-(1-{4-[1-(4-ethoxy-phenyl)-piperidin-4-yl]-phenyl}-ethyl)-acetamide]
4900 | CCOC(=O)c1cc(C#N)c(N2CCC(c3ccc([C@H](C)NC(C)=O)cc3)CC2)nc1C(F)(F)F [Example 5.15]
30 | CC(=O)N[C@@H](C)c1ccc(C2CCN(c3ncc(-c4ccc(C#N)s4)cn3)CC2)cc1 [Example 10.63]
210 | C[C@H](NC(=O)C1CC1)c1ccc(C2CCN(c3ncc4nc(-c5ccccc5)oc4n3)CC2)cc1 [Example 4.46]

IC50 [nM] | SMILES
5300 | CC(=O)N[C@@H](C)c1ccc(C2CCN(c3ccnc(NCc4ccco4)n3)CC2)cc1 [Example 11.60]
6700 | C[C@H](NC(=O)C1CC1)c1ccc(C2CCN(c3cnc(NCC4CC4)nc3)CC2)cc1 [Example 16.9]
350 | CC(=O)N[C@@H](C)c1ccc(C2CCN(c3ccnc(N4CCc5ccccc54)n3)CC2)cc1 [Example 11.49]
310 | CCOc1cccc(-c2ccc(N3CCC(c4ccc([C@H](C)NC(C)=O)cc4)CC3)nc2)c1 [Example 10.306]
5300 | CC(=O)N[C@@H](C)c1ccc(C2CCN(c3ncc(C(=O)NCc4ccoc4)cn3)CC2)cc1 [Example 18.32]
1200 | CC(=O)N[C@@H](C)c1ccc(C2CCN(c3ncc(-c4ccc(C)cc4C)cn3)CC2)cc1 [Example 10.48]
100 | CCOC(=O)C1(Oc2ccc(N3CCC(c4ccc([C@H](C)NC(C)=O)cc4)CC3)cc2)CCC1 [Example 8.10]
1900 | CC(=O)N[C@@H](C)c1ccc(C2CCN(c3noc(-c4ccccc4)n3)CC2)cc1 [Example 26.1, (S)—N-(1-{4-[1-(5-Phenyl-[1,2,4]oxadiazol-3-yl)-piperidin-4-yl]-phenyl}-ethyl)-acetamide]
290 | CCCCOc1ccc(N2CCC(c3ccc([C@H](C)NC(C)=O)cc3)CC2)cc1Cl [Example 8.44]
780 | CC(=O)N[C@@H](C)c1ccc(C2CCN(c3ccc(OCc4cc(C)on4)cc3)CC2)cc1 [Example 9.28]
320 | COc1ccc(N2CCC(c3ccc([C@H](C)NC(C)=O)cc3)CC2)c(OC)c1 [Example 1.41]
260 | CCCOc1ccc(N2CCC(c3ccc([C@H](C)NC(C)=O)cc3)CC2)cc1Cl [Example 8.34]
820 | CC(=O)N[C@@H](C)c1ccc(C2CCN(c3ccnc(OCCC(C)(C)C)n3)CC2)cc1 [Example 11.11]
2000 | COc1ccccc1-c1cnc(N2CCC(c3ccc([C@H](C)NC(C)=O)cc3)CC2)nc1 [Example 10.4]
3800 | CCOc1ccc(N2CCC(c3ccc([C@H](C)NC(=O)N(C)C4CC4)cc3)CC2)cc1 [Example 14.50, (S)-1-Cyclopropyl-3-(1-{4-[1-(4-ethoxy-phenyl)-piperidin-4-yl]-phenyl}-ethyl)-1-methylurea]
130 | COC(=O)N[C@@H](C)c1ccc(C2CCN(c3ccc(OC4CCCC4)cc3)CC2)cc1 [Example 1.133]
220 | CCC(C)Oc1ccc(N2CCC(c3ccc([C@H](C)NC(=O)C4CC4)cc3)CC2)cc1 (stereo partly drawn) [Example 1.10]
250 | CC(=O)N[C@@H](C)c1ccc(C2CCN(c3cccc(OCC4CCC4)c3)CC2)cc1 [Example 9.12]
540 | CC(=O)N[C@@H](C)c1ccc(C2CCN(c3ccnc(OC4Cc5ccccc5C4)c3)CC2)cc1 [Example 19.30]
1100 | CC(=O)N[C@@H](C)c1ccc(C2CCN(c3cc(NCC4CC4)ncn3)CC2)cc1 [Example 11.112]
60 | C[C@H](NC(=O)C1CC1)c1ccc(C2CCN(c3ccc(OC4CCCC4)cc3)CC2)cc1 [Example 1.117]
26600 | COc1cc(N2CCC(c3ccc([C@H](C)NC(C)=O)cc3)CC2)ccc1OCC1CCO1 (stereo partly drawn) [Example 8.49]
1400 | CCOc1ncc(N2CCC(c3ccc([C@H](C)NC(C)=O)cc3)CC2)cn1 [Example 16.1, (S)—N-(1-M{4-[1-(2-Ethoxy-pyrimidin-5-yl)-piperidin-4-yl]-phenyl}-ethyl)-acetamide]

IC50 [nM] | SMILES
1600 | CC(=O)N[C@@H](C)c1ccc(C2CCN(c3ccc(Oc4ccccc4)nn3)CC2)cc1 [Example 3.10]
370 | CC(=O)N[C@@H](C)c1ccc(C2CCN(c3ccccc3)CC2)cc1 [Example 1.45]
200 | CC(=O)N[C@@H](C)c1ccc(C2CCN(c3ccc(OC4CCCCC4)cc3)CC2)cc1 [Example 9.23]
110 | CC(=O)N[C@@H](C)c1ccc(C2CCN(c3ccc(C(C)C)cc3)CC2)cc1 [Example 1.52]
100 | CC(=O)N[C@@H](C)c1ccc(C2CCN(c3ncc(-c4cc5ccccc5o4)cn3)CC2)cc1 [Example 10.14]
1100 | CC(=O)N[C@@H](C)c1ccc(C2CCN(c3ccnc(OCC4CC4)n3)CC2)cc1 [Example 11.131]
12100 | CCOc1ccc(N2CCC(c3ccc([C@H](C)NC(=O)N4CCCCC4)cc3)CC2)cc1 [Example 14.69]
1900 | CC(=O)N[C@@H](C)c1ccc(C2CCN(c3cnn(Cc4ccccc4)c3)CC2)cc1 [Example 2.13]
13200 | CC(=O)N[C@@H](C)c1ccc(C2CCN(c3ncc(C(=O)N4[C@@H]5CC[C@H]4C[C@@H](O)C5)cn3)CC2)cc1 [Example 18.36]
14900 | CC(=O)N[C@@H](C)c1ccc(C2CCN(c3ncc(C(=O)NCCC4CCCN4C)cn3)CC2)cc1 (stereo partly drawn) [Example 18.56]
100 | CCCOc1ccc(N2CCC(c3ccc([C@H](C)NC(=O)C4CC4)cc3)CC2)c(F)c1 [Example 1.83]
430 | C[C@H](NC(=O)N(C)C)c1ccc(C2CCN(c3ncc(-c4ccccc4F)cn3)CC2)cc1 [Example 10.110]
100 | CC(=O)N[C@@H](C)c1ccc(C2CCN(c3ncc4nc(-c5ccncc5)oc4n3)CC2)cc1 [Example 5.10]
50 | CC(=O)N[C@@H](C)c1ccc(C2CCN(c3ncc(-c4ccsc4)cn3)CC2)cc1 [Example 10.62]
290 | CCOc1ccc(N2CCC(c3ccc([C@H](C)NC(C)=O)cc3)CC2)cc1F [Example 8.17]
190 | CCOc1ccc(N2CCC(c3ccc([C@H](C)NC(=O)CC)cc3)CC2)cc1 [Example 6.8]
2000 | CC(=O)N[C@@H](C)c1ccc(C2CCN(c3cc(NCC4CCC4)ncn3)CC2)cc1 [Example 11.95]
810 | C[C@H](NC(=O)C1CC1)c1ccc(C2CCN(c3nc(N(C)CC4CC4)ncc3C#N)CC2)cc1 [Example 11.126]
260 | CC(C)Oc1ccc(N2CCC(c3ccc([C@H](C)NC(=O)C4CC4)cc3)CC2)cc1 [Example 1.119]
80 | CCC(=O)N[C@@H](C)c1ccc(C2CCN(c3ccc(OCC4CC4(F)F)cc3)CC2)cc1 (stereo partly drawn) [Example 1.152]
1500 | CC(=O)N[C@@H](C)c1ccc(C2CCN(c3ncc(C(=O)Nc4cccc5c4OCO5)cn3)CC2)cc1 [Example 18.33]
340 | CC(=O)N[C@@H](C)c1ccc(C2CCN(c3nccc(I)c3C)CC2)cc1 [Example 5.39]
80 | COC(=O)N[C@@H](C)c1ccc(C2CCN(c3ccc(OC4CCC4)cc3)CC2)cc1 [Example 1.12]
